Assay: Oxidative induction time (OIT) by DSC, compound mixed with polyisoprene
Conditions: 0.5 wt % compound mixed with polyisoprene, isothermal 160 °C in O2, DSC; blank 1-2 minutes
Description: OIT is measured according to a procedure carried out in a differential scanning calorimeter (TA Instruments, Q200), also knows as DSC, and is used to predict thermo-oxidative performance of a material. In this procedure, each sample is held in a sample cell and heated under a nitrogen atmosphere to a preselected temperature.
0.5 wt % of a Compound of the Disclosure, or no antidegradant (blank) was mixed with polyisoprene and heated isothermally at 160° C. in O2.

In order of falling “Peak time of OIT testing” value:
1. Cc1cc(NC(C)C)cc2c1NC(c1ccccc1)CC2(C)c1ccccc1 (stereo not shown) [Compound 3-F, N-isopropyl-4,8-dimethyl-2,4-diphenyl-1,2,3,4-tetrahydroquinolin-6-amine]  43.8 min
2. COc1cc(Nc2ccccc2)cc2c1NC(C)(C)C=C2C [Compound 7-B, 8-methoxy-2,2,4-trimethyl-N-phenyl-1,2-dihydroquinolin-6-amine]  31.0 min
3. COC1=CC(=Nc2ccccc2)C=C2C(C)=CC(C)(C)N=C12 [Compound 7-D, 8-methoxy-2,2,4-trimethyl-N-phenylquinolin-6(2H)-imine]  24.6 min
4. Cc1cc(NC(C)c2ccccc2)cc2c1NC(C)(C)CC2 (stereo not shown) [Compound 119-B, 2,2,8-trimethyl-N-(1-phenylethyl)-1,2,3,4-tetrahydroquinolin-6-amine]  21.9 min
5. Cc1cc(NC(C)C)cc2c1NCCC2(C)c1ccccc1 (stereo not shown) [Compound 1-F, N-isopropyl-4,8-dimethyl-4-phenyl-1,2,3,4-tetrahydroquinolin-6-amine]  20.3 min
6. Cc1cc(NC(C)C)cc2c1NC(C(C)C)CC2(C)c1ccccc1 (stereo not shown) [Compound 4-F, N,2-diisopropyl-4,8-dimethyl-4-phenyl-1,2,3,4-tetrahydroquinolin-6-amine]  19.6 min
7. CCC(C)Nc1ccc2[nH]ccc2c1 (stereo not shown) [Compound 1-C, N-(sec-butyl)-1H-indol-5-amine]  19.2 min
8. Cc1cc(Nc2ccccc2)cc2c1NC(C)(C)CC2C (stereo not shown) [Compound 2-B, 2,2,4,8-tetramethyl-N-phenyl-1,2,3,4-tetrahydroquinolin-6-amine]  17.8 min
9. CCC(CC)Nc1cc(C)c2c(c1)C(C)(c1ccccc1)CCN2 (stereo not shown) [Compound 2-F, 4,8-dimethyl-N-(pentan-3-yl)-4-phenyl-1,2,3,4-tetrahydroquinolin-6-amine]  17.4 min
10. Cc1c(NC(C)C)ccc2c1NCCC2(C)c1ccccc1 (stereo not shown) [Compound 2-J, N-isopropyl-4,8-dimethyl-4-phenyl-1,2,3,4-tetrahydroquinolin-7-amine]  15.6 min
11. CC1=CC(C)(C)Nc2c(C)cc(Nc3ccccc3)cc21 [Compound 1-B, 2,2,4,8-tetramethyl-N-phenyl-1,2-dihydroquinolin-6-amine]  15.2 min
12. CCC(C)Nc1ccc2c(c1)CCN2 (stereo not shown) [Compound 2-C, N-(sec-butyl) indolin-5-amine]  14.1 min
13. CCOC(=O)C1=CC(C)(C(=O)OCC)Nc2ccc(Nc3ccccc3)cc21 (stereo not shown) [Compound 3-H, diethyl 2-methyl-6-(phenylamino)-1,2-dihydroquinoline-2,4-dicarboxylate]  12.9 min
14. CCOC(=O)C1=CC(C)(C(=O)OCC)Nc2c(C)cc(Nc3ccccc3)cc21 (stereo not shown) [Compound 120-B, diethyl 2,8-dimethyl-6-(phenylamino)-1,2-dihydroquinoline-2,4-dicarboxylate]  11.5 min
15. CC(C)CCC(C)Nc1ccc(NC(C)CCC(C)C)nc1 (stereo not shown) [Compound 1-E, N^2,N^5-bis(5-methylhexan-2-yl)pyridine-2,5-diamine]  11.1 min
16. CC1CC(C)(C)Nc2ccc(Cc3ccc4c(c3)C(C)CC(C)(C)N4)cc21 (stereo not shown) [Compound 2-A, bis(2,2,4-trimethyl-1,2,3,4-tetrahydroquinolin-6-yl) methane]  10.8 min
17. CC1=CC(C)(C)Nc2ccc(NCc3ccco3)cc21 [Compound 1-H, N-(furan-2-ylmethyl)-2,2,4-trimethyl-1,2-dihydroquinolin-6-amine]  10.7 min
18. CC1CC(C)(C)Nc2cc3c(cc21)NC(C)(C)CC3C (stereo not shown) [Compound 33-H, 2,2,4,7,7,9-hexamethyl-1,2,3,4,6,7,8,9-octahydropyrido[2,3-g]quinoline]  8.3 min
19. CC(Nc1ccc2[nH]ccc2c1)c1ccccc1 (stereo not shown) [Compound 19-C, N-(1-phenylethyl)-1H-indol-5-amine]  6.9 min
20. CC(C)Nc1ccc(C(c2ccccc2)c2ccc(NC(C)C)cc2)cc1 [Compound 16-A, 4,4′-(phenylmethylene)bis(N-isopropylaniline)]  6.6 min
21. CC1=CC(C)(C)Nc2cc3c(cc21)NC(C)(C)C=C3C [Compound 32-H, 2,2,4,7,7,9-hexamethyl-1,2,6,7-tetrahydropyrido[2,3-g]quinoline]  6.6 min
22. CC(C)Nc1ccc(C(c2ccc(NC(C)C)cc2)c2ccco2)cc1 [Compound 3-A, 4,4′-(furan-2-ylmethylene)bis(N-isopropylaniline)]  5.9 min
23. CC1=CC(C)(C)Nc2ccc(Sc3ccc4c(c3)C(C)=CC(C)(C)N4)cc21 [Compound 153-A, bis(2,2,4-trimethyl-1,2-dihydroquinolin-6-yl)sulfane]  5.8 min
24. CC1=CC(C)(C)Nc2ccc(Cc3ccc4c(c3)C(C)=CC(C)(C)N4)cc21 [Compound 1-A, bis(2,2,4-trimethyl-1,2-dihydroquinolin-6-yl) methane]  4.8 min
25. CC(C)Nc1ccc(Oc2ccc(NC(C)C)cc2)cc1 [Compound 27-A]  4.2 min
26. c1coc(CNc2ccc(C(c3ccc(NCc4ccco4)cc3)c3ccco3)cc2)c1 [Compound 7-A, 4,4′-(furan-2-ylmethylene)bis(N-(furan-2-ylmethyl)aniline)]  4.1 min
27. Cc1cc(NC(C)C)cc2c1NCC(C)(C)C2 [Compound 47-F, N-isopropyl-3,3,8-trimethyl-1,2,3,4-tetrahydroquinolin-6-amine]  3.2 min
28. c1coc(CNc2ccc(Cc3ccc(NCc4ccco4)cc3)cc2)c1 [Compound 8-A, 4,4′-methylenebis(N-(furan-2-ylmethyl)aniline)]  2.9 min
29. CC(C)Nc1ccc(Cc2ccc(NC(C)C)cc2)cc1 [Compound 19-A, 4,4′-methylenebis(N-isopropylaniline)]  2.7 min
30. CC1=CC(C)(C)Nc2c1ccc(NC(C)CC(C)C)c2C (stereo not shown) [Compound 1-J, 2,2,4,8-tetramethyl-N-(4-methylpentan-2-yl)-1,2-dihydroquinolin-7-amine]  2.6 min
31. CC(Nc1ccc(Cc2ccc(NC(C)c3ccccc3)cc2)cc1)c1ccccc1 (stereo not shown) [Compound 21-A, 4,4′-methylenebis(N-(1-phenylethyl)aniline)]  2.6 min
32. CC(C)Nc1ccc(Sc2ccc(NC(C)C)cc2)cc1 [Compound 11-A]  2.5 min
33. CC(Nc1ccc(Cc2ccc(NC(C)c3ccco3)cc2)cc1)c1ccco1 (stereo not shown) [Compound 20-A, 4,4′-methylenebis(N-(1-(furan-2-yl)ethyl)aniline)]  2.3 min
34. Cc1cc(Cc2cc(C)c(NC(C)C)c(C)c2)cc(C)c1NC(C)C [Compound 154-A, 4,4′-methylenebis(N-isopropyl-2,6-dimethylaniline)]  1.5 min
